# Laboratory results published in ChEMBL document CHEMBL1201862, “PubChem BioAssay data set” (2004).
#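 Tested at 5 concentrations; 48 h exposure; 96-well plates; endpoints linearly interpolated, else capped at highest concentration. GI50 = concentration required for 50% inhibition of growth.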 Active and inactive are the calls of the source. Cut-off read from the data, not from the text of the source: active = GI50 up to about 1.1 µM and inactive = higher.
# Key:
# Assay in all cases: inhibition of tumour cell growth, NCI panel, 48 h
# NCI-H226 = system: NCI-H226
# SNB-75 = system: SNB-75
# K562 = system: K562
# EKVX = system: EKVX
# KM12 = system: KM12
# SK-MEL-28 = system: SK-MEL-28
# MOLT-4 = system: MOLT-4
# UACC-62 = system: UACC-62
# HCC 2998 = system: HCC 2998
# MCF7 = system: MCF7
# LOX IMVI = system: LOX IMVI
# NCI/ADR-RES = system: NCI/ADR-RES
# COLO 205 = system: COLO 205
# UACC-257 = system: UACC-257
# KM-20L2 = system: KM-20L2
# OVCAR-5 = system: OVCAR-5
# OVCAR-3 = system: OVCAR-3
# HCT-116 = system: HCT-116
# OVCAR-4 = system: OVCAR-4
# NCI-H460 = system: NCI-H460
# A549 = system: A549
# UO-31 = system: UO-31
# SF-268 = system: SF-268
# SN12C = system: SN12C
# CAKI-1 = system: CAKI-1
# SF-295 = system: SF-295
# HL-60 = system: HL-60
# SK-MEL-2 = system: SK-MEL-2
# HOP-62 = system: HOP-62
# HT-29 = system: HT-29
# U-251 = system: U-251
# SF-539 = system: SF-539
# SNB-19 = system: SNB-19
# RXF 393 = system: RXF 393
# NCI-H23 = system: NCI-H23
# SW-620 = system: SW-620
# NCI-H522 = system: NCI-H522
# IGROV-1 = system: IGROV-1
# HCT-15 = system: HCT-15
# HOP-92 = system: HOP-92
# A498 = system: A498
# Malme-3M = system: Malme-3M
# RPMI-8226 = system: RPMI-8226
# OVCAR-8 = system: OVCAR-8
# SK-OV-3 = system: SK-OV-3
# SK-MEL-5 = system: SK-MEL-5
# TK-10 = system: TK-10
# SR = system: SR
# SNB-78 = system: SNB-78
# DMS-114 = system: DMS-114
# LXFL 529 = system: LXFL 529
# M19-MEL = system: M19-MEL
# M14 = system: M14
# DMS-273 = system: DMS-273
# ACHN = system: ACHN
compound,measurement,setting,value
COCCO [2-METHOXYETHANOL],GI50,NCI-H226,> 100 µM (inactive)
same,GI50,SNB-75,> 64.6 µM (inactive)
same,GI50,K562,> 100 µM (inactive)
same,GI50,EKVX,> 100 µM (inactive)
same,GI50,KM12,> 100 µM (inactive)
same,GI50,SK-MEL-28,> 100 µM (inactive)
same,GI50,MOLT-4,> 100 µM (inactive)
same,GI50,UACC-62,> 100 µM (inactive)
same,GI50,HCC 2998,> 100 µM (inactive)
same,GI50,MCF7,> 100 µM (inactive)
same,GI50,LOX IMVI,> 100 µM (inactive)
same,GI50,NCI/ADR-RES,> 100 µM (inactive)
same,GI50,COLO 205,> 100 µM (inactive)
same,GI50,UACC-257,> 100 µM (inactive)
same,GI50,KM-20L2,> 100 µM (inactive)
same,GI50,OVCAR-5,> 100 µM (inactive)
same,GI50,OVCAR-3,> 100 µM (inactive)
same,GI50,HCT-116,> 100 µM (inactive)
same,GI50,OVCAR-4,> 100 µM (inactive)
same,GI50,NCI-H460,> 100 µM (inactive)
same,GI50,A549,> 100 µM (inactive)
same,GI50,UO-31,> 87.3 µM (inactive)
same,GI50,SF-268,> 100 µM (inactive)
same,GI50,SN12C,> 100 µM (inactive)
same,GI50,CAKI-1,> 100 µM (inactive)
same,GI50,SF-295,> 100 µM (inactive)
same,GI50,HL-60,> 100 µM (inactive)
same,GI50,SK-MEL-2,> 100 µM (inactive)
same,GI50,HOP-62,> 78.2 µM (inactive)
same,GI50,HT-29,> 100 µM (inactive)
same,GI50,U-251,> 100 µM (inactive)
same,GI50,SF-539,> 100 µM (inactive)
same,GI50,SNB-19,> 100 µM (inactive)
same,GI50,RXF 393,> 100 µM (inactive)
same,GI50,NCI-H23,> 100 µM (inactive)
same,GI50,SW-620,> 100 µM (inactive)
same,GI50,NCI-H522,> 100 µM (inactive)
same,GI50,IGROV-1,> 100 µM (inactive)
same,GI50,HCT-15,> 100 µM
same,GI50,HOP-92,> 100 µM (inactive)
same,GI50,A498,> 100 µM (inactive)
same,GI50,Malme-3M,> 100 µM (inactive)
same,GI50,RPMI-8226,> 100 µM (inactive)
same,GI50,OVCAR-8,> 100 µM (inactive)
same,GI50,SK-OV-3,> 100 µM (inactive)
same,GI50,SK-MEL-5,> 100 µM (inactive)
Clc1ccc(-c2nnc(-c3nsc4ccccc34)o2)cc1,GI50,SNB-75,8.17 µM (inactive)
same,GI50,TK-10,25.2 µM (inactive)
same,GI50,EKVX,14.2 µM (inactive)
same,GI50,KM12,51.5 µM (inactive)
same,GI50,SK-MEL-28,33.3 µM (inactive)
same,GI50,UACC-62,54 µM (inactive)
same,GI50,SR,> 10 µM (inactive)
same,GI50,HCC 2998,24.9 µM (inactive)
same,GI50,SNB-78,46.2 µM (inactive)
same,GI50,LOX IMVI,40.1 µM (inactive)
same,GI50,COLO 205,71.8 µM (inactive)
same,GI50,UACC-257,> 100 µM (inactive)
same,GI50,KM-20L2,46.2 µM (inactive)
same,GI50,OVCAR-5,58.7 µM (inactive)
same,GI50,OVCAR-3,14 µM (inactive)
same,GI50,DMS-114,65.6 µM (inactive)
same,GI50,LXFL 529,71 µM (inactive)
same,GI50,HCT-116,18.2 µM (inactive)
same,GI50,OVCAR-4,14.2 µM (inactive)
same,GI50,NCI-H460,23.3 µM (inactive)
same,GI50,A549,40.6 µM (inactive)
same,GI50,UO-31,18.8 µM (inactive)
same,GI50,SF-268,18.5 µM (inactive)
same,GI50,M19-MEL,> 100 µM (inactive)
same,GI50,M14,47.2 µM (inactive)
same,GI50,SN12C,36.6 µM (inactive)
same,GI50,SK-MEL-2,28.5 µM (inactive)
same,GI50,HOP-62,13.8 µM (inactive)
same,GI50,HT-29,25.9 µM (inactive)
same,GI50,DMS-273,26.6 µM (inactive)
same,GI50,U-251,15.2 µM (inactive)
same,GI50,SF-539,20 µM (inactive)
same,GI50,SNB-19,30.8 µM (inactive)
same,GI50,RXF 393,38.3 µM (inactive)
same,GI50,NCI-H23,17.5 µM (inactive)
same,GI50,SW-620,50.5 µM (inactive)
same,GI50,ACHN,25.1 µM (inactive)
same,GI50,IGROV-1,18.5 µM (inactive)
same,GI50,HCT-15,47.8 µM
same,GI50,HOP-92,17.9 µM (inactive)
same,GI50,RPMI-8226,24.2 µM (inactive)
same,GI50,OVCAR-8,25.1 µM (inactive)
same,GI50,SK-MEL-5,31.3 µM (inactive)
